The values that follow come from patent publication US8217066B2, “Compounds as lysophosphatidic acid receptor antagonists” (Amira Pharmaceuticals, Inc., priority 2009, dated 2012).

In this assay the target is T1, human LPA1 (Homo sapiens, UniProt Q92633).
T1 construct: the full-length cDNA for human LPA1 was obtained by PCR of the reverse transcription reaction; expressed in transfected cells
The assay can be described thus: LPA1 calcium flux assay (HLPA1 Ca Flux). In kind it is cell-based. As to conditions: CHO cells stably expressing human LPA1, stimulated with 10 nM LPA. As for the experimental part:
A 1.1 kb cDNA encoding the human LPA1 receptor was cloned from human lung. Human lung RNA (Clontech Laboratories, Inc. USA) was reverse transcribed using the RETROscript kit (Ambion, Inc.) and the full-length cDNA for human LPA1 was obtained by PCR of the reverse transcription reaction. The nucleotide sequence of the cloned human LPA1 was determined by sequencing and confirmed to be identical to the published human LPA1 sequence (An et al. Biochem. Biophys. Res. Commun. 231:619 (1997). The cDNA was cloned into the pcDNA5/FRT expression plasmid and transfected in CHO cells using lipofectamine 2000 (Invitrogen Corp., USA). Clones stably expressing human LPA1 were selected using hygromycin and identified as cells that show Ca-influx in response to LPA.
Human LPA1 or LPA3 expressing CHO cells are seeded at 20,000-45,000 cells per well in a 96-well poly-D-lysine coated plate one or two days before the assay. Prior to the assay, the cells are washed once with PBS and then cultured in serum-free media overnight. On the day of the assay, a calcium indicator dye (Calcium 4, Molecular Devices) in assay buffer (HBSS with Ca^2+ and Mg^2+ and containing 20 mM Hepes and 0.3% fatty-acid free human serum albumin) is added to each well and incubation continued for 1 hour at 37° C. […] of test compounds in 2.5% DMSO are added to the cells and incubation continued at room temperature for 30 minutes. Cells are the stimulated by the addition of 10 nM LPA and intracellular Ca^2+ measured using the Flexstation 3 (Molecular Devices). IC50s are determined using Graphpad prism analysis of drug titration curves.
For orientation: Calcium assays in cells follow changes in intracellular calcium, usually with a dye or a luminescent sensor.

Structures are written as SMILES.

T1 sequence (Q92633 whole entry): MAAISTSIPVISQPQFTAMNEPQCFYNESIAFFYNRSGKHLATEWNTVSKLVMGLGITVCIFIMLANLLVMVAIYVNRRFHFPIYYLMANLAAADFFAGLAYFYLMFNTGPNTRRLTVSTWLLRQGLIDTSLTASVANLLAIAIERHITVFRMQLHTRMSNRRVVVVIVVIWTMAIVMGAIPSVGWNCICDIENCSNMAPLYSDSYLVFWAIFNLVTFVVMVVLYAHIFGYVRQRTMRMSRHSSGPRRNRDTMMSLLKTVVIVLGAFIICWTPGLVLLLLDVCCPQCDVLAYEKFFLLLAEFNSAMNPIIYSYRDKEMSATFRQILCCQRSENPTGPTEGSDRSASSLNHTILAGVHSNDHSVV

Turning to `Cc1noc(-c2ccc(-c3ccc(C4(C(=O)O)CC4)cc3)cc2)c1CC(O)CNCc1ccccc1` (stereo not shown) [Compound 27, 1-{4′-[4-(3-Benzylamino-2-hydroxy-propyl)-3-methyl-isoxazol-5-yl]-biphenyl-4-yl}-cyclopropanecarboxylic acid], the IC50 fell in the range of 1000 to 50000 nM. The result for `Cc1noc(-c2ccc(-c3ccc(C4(C(=O)O)CC4)cc3)cc2)c1NCC(C)Cc1ccc(C(C)C)cc1` (stereo not shown) [Compound 3, 1-(4′-{4-[3-(4-Isopropyl-phenyl)-2-methyl-propylamino]-3-methyl-isoxazol-5-yl}-biphenyl-4-yl)-cyclopropanecarboxylic acid] reads 300 to 1000 nM; that for `Cc1noc(-c2ccc(-c3ccc(C4(C(=O)O)CC4)cc3)cc2)c1CC(C)(O)CCc1ccccc1` (stereo not shown) [Compound 25, 1-{4′-[4-(2-Hydroxy-2-methyl-4-phenyl-butyl)-3-methyl-isoxazol-5-yl]-biphenyl-4-yl}-cyclopropanecarboxylic acid], under 300 nM; that for `Cc1noc(-c2ccc(-c3ccc(C4(C(=O)O)CC4)cc3)cc2)c1CCNCc1ccccc1` [Compound 28, 1-{4′-[4-(2-Benzylamino-ethyl)-3-methyl-isoxazol-5-yl]-biphenyl-4-yl}-cyclopropanecarboxylic acid], 300 to 1000 nM. Under `Cc1noc(-c2ccc(-c3ccc(C4(C(=O)O)CC4)cc3)cc2)c1CCOCc1ccccc1` [Compound 7, 1-{4′-[4-(2-Benzyloxy-ethyl)-3-methyl-isoxazol-5-yl]-biphenyl-4-yl}-cyclopropanecarboxylic acid] stands under 300 nM; under `Cc1noc(-c2ccc(-c3ccc(C4(C(=O)NS(C)(=O)=O)CC4)cc3)cc2)c1CSCCc1ccccc1` [Compound 71, N-[1-[4′-(3-Methyl-4-phenethylsulfanylmethyl-isoxazol-5-yl)-biphenyl-4-yl]-cyclopropanecarbonyl]-methanesulfonamide], under 300 nM. The result for `Cc1noc(-c2ccc(-c3ccc(C4(C(=O)O)CC4)cc3)cc2)c1CSCCc1ccccc1` [Compound 10, 1-[4′-(3-Methyl-4-phenethylsulfanylmethyl-isoxazol-5-yl)-biphenyl-4-yl]-cyclopropanecarboxylic acid] reads under 300 nM; that for `Cc1cccc(CCCC(O)c2c(C)noc2-c2ccc(-c3ccc(C4(C(=O)O)CC4)cc3)cc2)c1` (stereo not shown) [Compound 37, 1-{4′-[4-(1-Hydroxy-4-m-tolyl-butyl)-3-methyl-isoxazol-5-yl]-biphenyl-4-yl}-cyclopropanecarboxylic acid], under 300 nM; that for `Cc1noc(-c2ccc(-c3ccc(C4(C(=O)O)CC4)cc3)cc2)c1NC(C)CCc1ccccc1Cl` (stereo not shown) [Compound 53, 1-(4′-{4-[3-(2-Chloro-phenyl)-1-methyl-propylamino]-3-methyl-isoxazol-5-yl}-biphenyl-4-yl)-cyclopropanecarboxylic acid], under 300 nM. Consider `Cc1noc(-c2ccc(-c3ccc(C4(C(=O)O)CC4)cc3)cc2)c1CCOCc1ccccc1Cl` [Compound 15, 1-(4′-{4-[2-(2-Chloro-benzyloxy)-ethyl]-3-methyl-isoxazol-5-yl}-biphenyl-4-yl)-cyclopropanecarboxylic acid], for which the IC50 was under 300 nM.

For `Cc1noc(-c2ccc(-c3ccc(C4(C(=O)O)CC4)cc3)cc2)c1NC(C)CC(C)(C)c1ccccc1` (stereo not shown) [Compound 69, 1-{4′-[4-(1,3-Dimethyl-3-phenyl-butylamino)-3-methyl-isoxazol-5-yl]-biphenyl-4-yl}-cyclopropanecarboxylic acid], the half-inhibitory concentration (IC50) was under 300 nM. Under `Cc1noc(-c2ccc(-c3ccc(C4(C(=O)O)CC4)cc3)cc2)c1C(O)CCCc1cccc(C(F)(F)F)c1` (stereo not shown) [Compound 36, 1-(4′-{4-[1-Hydroxy-4-(3-trifluoromethyl-phenyl)-butyl]-3-methyl-isoxazol-5-yl}-biphenyl-4-yl)-cyclopropanecarboxylic acid] stands under 300 nM; under `Cc1noc(-c2ccc(-c3ccc(C4(C(=O)O)CC4)cc3)cc2)c1CC(O)CCc1ccccc1` (stereo not shown) [Compound 20, 1-{4′-[4-(2-Hydroxy-4-phenyl-butyl)-3-methyl-isoxazol-5-yl]-biphenyl-4-yl}-cyclopropanecarboxylic acid], under 300 nM; under `Cc1noc(-c2ccc(-c3ccc(C4(C(=O)O)CC4)cc3)cc2)c1CNC[C@H](C)c1ccccc1` [Compound 22, 1-(4′-{3-Methyl-4-[((R)-2-phenyl-propylamino)-methyl]-isoxazol-5-yl}-biphenyl-4-yl)-cyclopropanecarboxylic acid], under 300 nM. As for `Cc1noc(-c2ccc(-c3ccc(C4(C(=O)O)CC4)cc3)cc2)c1CNCC(C)c1ccccc1` (stereo not shown) [Compound 13, 1-(4′-{3-Methyl-4-[(2-phenyl-propylamino)-methyl]-isoxazol-5-yl}-biphenyl-4-yl)-cyclopropanecarboxylic acid], the IC50 was under 300 nM. Under `Cc1noc(-c2ccc(-c3ccc(C4(C(=O)O)CC4)cc3)cc2)c1C(F)(F)CCCc1ccccc1` [Compound 46, 1-{4′-[4-(1,1-Difluoro-4-phenyl-butyl)-3-methyl-isoxazol-5-yl]-biphenyl-4-yl}-cyclopropanecarboxylic acid] stands 1000 to 50000 nM; under `Cc1noc(-c2ccc(-c3ccc(C4(C(=O)O)CC4)cc3)cc2)c1NCCC(C)c1ccccc1` (stereo not shown) [Compound 1, 1-{4′-[3-Methyl-4-(3-phenyl-butylamino)-isoxazol-5-yl]-biphenyl-4-yl}-cyclopropanecarboxylic acid], under 300 nM. Regarding `CCC(CCc1ccccc1)Nc1c(C)noc1-c1ccc(-c2ccc(C3(C(=O)O)CC3)cc2)cc1` (stereo not shown) [Compound 66, 1-{4′-[4-(1-Ethyl-3-phenyl-propylamino)-3-methyl-isoxazol-5-yl]-biphenyl-4-yl}-cyclopropanecarboxylic acid], the IC50 was under 300 nM.

As for `COc1ccc(CCC(C)Nc2c(C)noc2-c2ccc(-c3ccc(C4(C(=O)O)CC4)cc3)cc2)cc1` (stereo not shown) [Compound 50, 1-(4′-{4-[3-(4-Methoxy-phenyl)-1-methyl-propylamino]-3-methyl-isoxazol-5-yl}-biphenyl-4-yl)-cyclopropanecarboxylic acid], the IC50 is under 300 nM. The result for `Cc1noc(-c2ccc(-c3ccc(C4(C(=O)O)CC4)cc3)cc2)c1NCCCc1ccccc1` [Compound 2, 1-{4′-[3-Methyl-4-(3-phenyl-propylamino)-isoxazol-5-yl]-biphenyl-4-yl}-cyclopropanecarboxylic acid] reads under 300 nM; that for `Cc1noc(-c2ccc(-c3ccc(C4(C(=O)O)CC4)cc3)cc2)c1COC(C)Cc1ccccc1` (stereo not shown) [Compound 9, 1-{4′-[3-Methyl-4-(1-methyl-2-phenyl-ethoxymethyl)-isoxazol-5-yl]-biphenyl-4-yl}-cyclopropanecarboxylic acid], under 300 nM; that for `Cc1noc(-c2ccc(-c3ccc(C4(C(=O)NS(C)(=O)=O)CC4)cc3)cc2)c1C(O)COCCc1ccccc1` (stereo not shown) [Compound 74, N-(1-{4′-[4-(1-Hydroxy-2-phenethyloxy-ethyl)-3-methyl-isoxazol-5-yl]-biphenyl-4-yl}-cyclopropanecarbonyl)-methanesulfonamide], under 300 nM. In the case of `Cc1noc(-c2ccc(-c3ccc(C4(C(=O)O)CC4)cc3)cc2)c1C(C)(O)CCCc1ccccc1` (stereo not shown) [Compound 26, 1-{4′-[4-(1-Hydroxy-1-methyl-4-phenyl-butyl)-3-methyl-isoxazol-5-yl]-biphenyl-4-yl}-cyclopropanecarboxylic acid], the half-inhibitory concentration (IC50) was under 300 nM.

For the molecule `Cc1noc(-c2ccc(-c3ccc(C4(C(=O)NS(C)(=O)=O)CC4)cc3)cc2)c1CC(F)(F)CCc1ccccc1` [Compound 75, N-(1-{4′-[4-(2,2-Difluoro-4-phenyl-butyl)-3-methyl-isoxazol-5-yl]-biphenyl-4-yl}-cyclopropanecarbonyl)-methanesulfonamide], the IC50 was under 300 nM. The result for `Cc1noc(-c2ccc(-c3ccc(C4(C(=O)O)CC4)cc3)cc2)c1CCSCc1ccccc1` [Compound 18, 1-{4′-[4-(2-Benzylsulfanyl-ethyl)-3-methyl-isoxazol-5-yl]-biphenyl-4-yl}-cyclopropanecarboxylic acid] reads under 300 nM. Under `Cc1noc(-c2ccc(-c3ccc(C4(C(=O)O)CC4)cc3)cc2)c1C(O)CSCc1cccc(C(F)(F)F)c1` (stereo not shown) [Compound 63, 1-(4′-{4-[1-Hydroxy-2-(3-trifluoromethyl-benzylsulfanyl)-ethyl]-3-methyl-isoxazol-5-yl}-biphenyl-4-yl)-cyclopropanecarboxylic acid] stands under 300 nM. Under `Cc1noc(-c2ccc(-c3ccc(C4(C(=O)NS(=O)(=O)C5CC5)CC4)cc3)cc2)c1C(O)CCCc1ccccc1` (stereo not shown) [Compound 79] stands under 300 nM.

In the case of `Cc1noc(-c2ccc(-c3ccc(C4(C(=O)O)CC4)cc3)cc2)c1C(O)COCc1cccc(C(F)(F)F)c1` (stereo not shown) [Compound 58, 1-(4′-{4-[1-Hydroxy-2-(3-trifluoromethyl-benzyloxy)-ethyl]-3-methyl-isoxazol-5-yl}-biphenyl-4-yl)-cyclopropanecarboxylic acid], the IC50 was under 300 nM.

One may read the IC50 as the concentration that inhibits the measured activity by half.
